# Reference: US4788202A, “Sulphonamide derivatives as α2 -adrenoceptor antagonists” (John Wyeth & Brother Limited, priority 1985, dated 1988)
# Experiments:
# α2 -adrenoceptor = target: T1, α2 -adrenoceptor (Rattus norvegicus, UniProt P22909); test: α2-adrenoceptor antagonistic activity on the rat field stimulated vas deferens preparation (modified method of Drew)
# T1 construct: rat field stimulated vas deferens preparation; from tissue; host or cells: rat vas deferens, field stimulated
# T1 sequence (P22909 1-465): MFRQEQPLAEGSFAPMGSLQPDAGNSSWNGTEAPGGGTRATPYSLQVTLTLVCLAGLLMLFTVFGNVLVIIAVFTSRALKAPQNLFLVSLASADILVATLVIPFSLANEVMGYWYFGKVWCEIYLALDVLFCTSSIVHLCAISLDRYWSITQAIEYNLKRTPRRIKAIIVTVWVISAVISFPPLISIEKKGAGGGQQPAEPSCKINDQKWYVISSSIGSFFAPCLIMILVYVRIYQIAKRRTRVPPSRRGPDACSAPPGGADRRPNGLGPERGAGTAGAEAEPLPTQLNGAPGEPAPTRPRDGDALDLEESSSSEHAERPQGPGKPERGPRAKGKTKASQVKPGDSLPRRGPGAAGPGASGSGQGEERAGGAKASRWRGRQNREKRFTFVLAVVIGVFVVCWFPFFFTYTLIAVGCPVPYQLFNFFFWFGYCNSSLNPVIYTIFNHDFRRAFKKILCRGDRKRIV
# From the text: (§1) The compounds of the invention may be tested for α2 -adrenoceptor antagonistic activity on the rat field stimulated vas deferens preparation using a modification of the method of Drew, Eur. J. Pharmac., 1977,42, 123-130 as described in our GB patent No. 2136804A Specification and for the α1 -antagonist activity by the method based on that of Gillespie Br. J. Pharmac 1972, 45 404-416, as also described in GB patent specification No. 2136804A.
# α1 -adrenoceptor = target: T2, α1 -adrenoceptor (Rattus norvegicus, UniProt P43140); test: α1-adrenoceptor antagonist activity by a method based on that of Gillespie; conditions: as described in GB 2136804A, read-out: pA2 for α1 -adrenoceptor antagonistic activity (converted)
# T2 construct: method based on that of Gillespie Br. J. Pharmac 1972, 45 404-416; from tissue
# T2 sequence (P43140 1-466): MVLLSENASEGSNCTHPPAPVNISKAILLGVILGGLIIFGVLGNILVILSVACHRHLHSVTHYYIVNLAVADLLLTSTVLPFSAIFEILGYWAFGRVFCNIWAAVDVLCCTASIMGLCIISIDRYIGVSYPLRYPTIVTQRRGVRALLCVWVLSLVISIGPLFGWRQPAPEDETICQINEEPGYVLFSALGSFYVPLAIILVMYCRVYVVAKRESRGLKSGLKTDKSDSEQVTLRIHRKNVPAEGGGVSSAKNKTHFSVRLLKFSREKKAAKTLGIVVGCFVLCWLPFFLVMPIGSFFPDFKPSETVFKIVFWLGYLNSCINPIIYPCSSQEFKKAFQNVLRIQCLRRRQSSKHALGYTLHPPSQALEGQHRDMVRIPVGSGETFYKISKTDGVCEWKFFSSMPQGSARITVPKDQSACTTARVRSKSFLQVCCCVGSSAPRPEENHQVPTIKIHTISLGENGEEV
# From the text: as §1
smiles,measurement,setting,value
"CS(=O)(=O)NCCN([C@@H]1CCN2CCc3c(oc4ccccc34)[C@@H]2C1)S(C)(=O)=O (relative stereo) [Example 2, N-[(2β,12bα)-1,3,4,6,7,12b-Hexahydro-2H-benzo[b]furo [2,3-a]quinolizin-2-yl]-N-(2-methanesulphonamidoethyl) methanesulphonamide]",Kb,"α2 -adrenoceptor; rat field stimulated vas deferens preparation, read-out: pA2 for α2 -adrenoceptor antagonist activity (converted)",8.51 nM
same,α2 /α1 selectivity [antilog of (α2 pA2 - α1 pA1)],α2 -adrenoceptor; ratio from α2 and α1 pA2 values,32
same,Kb,α1 -adrenoceptor,275 nM
